Experimental data reported in patent publication US11759462B2, “Spirocyclic compounds as tryptophan hydroxylase inhibitors” (priority 2013, dated 2023).
Where two headings read alike, the source gives them in different places.

Target: T1, Recombinant human TPH1 (MBP tagged) (Homo sapiens, UniProt P17752)
T1 construct: cloning full length human TPH1 cDNA in to a bacterial pMAL-c5E expression vector; made in house; host or cells: E. coli BL21 (DE3)
T1 sequence (P17752 1-444): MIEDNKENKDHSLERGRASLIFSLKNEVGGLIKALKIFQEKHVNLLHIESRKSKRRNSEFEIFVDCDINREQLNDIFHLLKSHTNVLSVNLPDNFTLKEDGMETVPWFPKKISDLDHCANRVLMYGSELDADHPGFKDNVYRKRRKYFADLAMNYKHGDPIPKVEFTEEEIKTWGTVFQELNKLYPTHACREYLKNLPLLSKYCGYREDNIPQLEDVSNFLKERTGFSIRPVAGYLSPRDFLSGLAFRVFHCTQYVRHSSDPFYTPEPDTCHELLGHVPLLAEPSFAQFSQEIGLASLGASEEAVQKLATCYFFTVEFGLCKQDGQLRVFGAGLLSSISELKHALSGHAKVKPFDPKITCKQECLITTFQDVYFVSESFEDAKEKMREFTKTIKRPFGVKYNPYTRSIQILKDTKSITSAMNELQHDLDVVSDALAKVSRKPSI
Experiment: TPH1 in vitro inhibition assay (kinetic fluorescence)
Assay type: biochemical
Summary of the method: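 Final mix: 15 nM MBP-TPH1, 30 μM Trp, 36 μM 6-methyltetrahydropterin, 25 μM ferrous ammonium sulfate, 50 mM MES pH 7.1, 1% DMSO, room temperature.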

[1] = read-out: TPH1 Range (TPH1 inhibition IC50)

Row | Compound | IC50 [1] | IC50 (TPH1 Range (TPH1 inhibition IC50))
1 | CCc1cccc(-c2cc(Cl)ccc2[C@@H](Oc2cc(N3CCC4(CC3)CN[C@H](C(=O)O)C4)nc(N)n2)C(F)(F)F)c1 [Example 34cd, (S)-8-(2-amino-6-((R)-1-(5-chloro-3′-ethyl-[1,1′-biphenyl]-2-yl)-2,2,2-trifluoroethoxy)pyrimidin-4-yl)-2,8-diazaspiro[4.5]decane-3-carboxylic acid] | 50 to 300 nM | –
2 | Nc1nc(O[C@H](c2ccc(Cl)cc2-c2cccc(C(=O)NCCN3CCCC3)c2)C(F)(F)F)cc(N2CCC3(CC2)CN[C@H](C(=O)O)C3)n1 [Example 34cf, (S)-8-(2-amino-6-((R)-1-(5-chloro-3′-((2-(pyrrolidin-1-yl)ethyl)carbamoyl)-[1,1′-biphenyl]-2-yl)-2,2,2-trifluoroethoxy)pyrimidin-4-yl)-2,8-diazaspiro[4.5]decane-3-carboxylic acid] | 300 to 3000 nM | –
3 | Nc1nc(O[C@H](c2ccc(Cl)cc2-c2cccc(C(=O)N3CCOCC3)c2)C(F)(F)F)cc(N2CCC3(CC2)CN[C@H](C(=O)O)C3)n1 [Example 34cg, (S)-8-(2-amino-6-((R)-1-(5-chloro-3′-(morpholine-4-carbonyl)-[1,1′-biphenyl]-2-yl)-2,2,2-trifluoroethoxy)pyrimidin-4-yl)-2,8-diazaspiro[4.5]decane-3-carboxylic acid] | 50 to 300 nM | –
4 | CN1CCN(C(=O)c2cccc(-c3cc(Cl)ccc3[C@@H](Oc3cc(N4CCC5(CC4)CN[C@H](C(=O)O)C5)nc(N)n3)C(F)(F)F)c2)CC1 [Example 34ch, (S)-8-(2-amino-6-((R)-1-(5-chloro-3′-(4-methylpiperazine-1-carbonyl)-[1,1′-biphenyl]-2-yl)-2,2,2-trifluoroethoxy)pyrimidin-4-yl)-2,8-diazaspiro[4.5]decane-3-carboxylic acid] | < 50 nM | –
5 | Cc1ncc(-c2cc(Cl)ccc2[C@@H](Oc2cc(N3CCC4(CC3)CN[C@H](C(=O)O)C4)nc(N)n2)C(F)(F)F)s1 [Example 34ci, (S)-8-(2-amino-6-((R)-1-(4-chloro-2-(2-methylthiazol-5-yl)phenyl)-2,2,2-trifluoroethoxy)pyrimidin-4-yl)-2,8-diazaspiro[4.5]decane-3-carboxylic acid] | 50 to 300 nM | –
6 | Cn1cccc(-c2cc(Cl)ccc2[C@@H](Oc2cc(N3CCC4(CC3)CN[C@H](C(=O)O)C4)nc(N)n2)C(F)(F)F)c1=O [Example 34cj, (S)-8-(2-amino-6-((R)-1-(4-chloro-2-(1-methyl-2-oxo-1,2-dihydropyridin-3-yl)phenyl)-2,2,2-trifluoroethoxy)pyrimidin-4-yl)-2,8-diazaspiro[4.5]decane-3-carboxylic acid] | 50 to 300 nM | –
7 | CNS(=O)(=O)c1cccc(-c2cc(Cl)ccc2[C@@H](Oc2cc(N3CCC4(CC3)CN[C@H](C(=O)O)C4)nc(N)n2)C(F)(F)F)c1 [Example 34ck, (S)-8-(2-amino-6-((R)-1-(5-chloro-3′-(N-methylsulfamoyl)-[1,1′-biphenyl]-2-yl)-2,2,2-trifluoroethoxy)pyrimidin-4-yl)-2,8-diazaspiro[4.5]decane-3-carboxylic acid] | 50 to 300 nM | –
8 | CN(C)S(=O)(=O)c1cccc(-c2cc(Cl)ccc2[C@@H](Oc2cc(N3CCC4(CC3)CN[C@H](C(=O)O)C4)nc(N)n2)C(F)(F)F)c1 [Example 34cl, (S)-8-(2-amino-6-((R)-1-(5-chloro-3′-(N,N-dimethylsulfamoyl)-[1,1′-biphenyl]-2-yl)-2,2,2-trifluoroethoxy)pyrimidin-4-yl)-2,8-diazaspiro[4.5]decane-3-carboxylic acid] | – | 50 to 300 nM
9 | CNC(=O)c1cccc(-c2cc(Cl)ccc2[C@@H](Oc2cc(N3CCC4(CC3)CN[C@H](C(=O)O)C4)nc(N)n2)C(F)(F)F)c1 [Example 34cm, (S)-8-(2-amino-6-((R)-1-(5-chloro-3′-(methylcarbamoyl)-[1,1′-biphenyl]-2-yl)-2,2,2-trifluoroethoxy)pyrimidin-4-yl)-2,8-diazaspiro[4.5]decane-3-carboxylic acid] | 50 to 300 nM | –
10 | CN(C)C(=O)c1cccc(-c2cc(Cl)ccc2[C@@H](Oc2cc(N3CCC4(CC3)CN[C@H](C(=O)O)C4)nc(N)n2)C(F)(F)F)c1 [Example 34cn, (S)-8-(2-amino-6-((R)-1-(5-chloro-3′-(dimethylcarbamoyl)-[1,1′-biphenyl]-2-yl)-2,2,2-trifluoroethoxy)pyrimidin-4-yl)-2,8-diazaspiro[4.5]decane-3-carboxylic acid] | 50 to 300 nM | –
11 | CCN(CC)C(=O)c1cccc(-c2cc(Cl)ccc2[C@@H](Oc2cc(N3CCC4(CC3)CN[C@H](C(=O)O)C4)nc(N)n2)C(F)(F)F)c1 [Example 34co, (S)-8-(2-amino-6-((R)-1-(5-chloro-3′-(diethylcarbamoyl)-[1,1′-biphenyl]-2-yl)-2,2,2-trifluoroethoxy)pyrimidin-4-yl)-2,8-diazaspiro[4.5]decane-3-carboxylic acid] | 50 to 300 nM | –
12 | Nc1nc(O[C@H](c2ccc(Cl)cc2-c2cccc3[nH]cnc23)C(F)(F)F)cc(N2CCC3(CC2)CN[C@H](C(=O)O)C3)n1 [Example 34cp, (S)-8-(6-((R)-1-(2-(1H-benzo[d]imidazol-4-yl)-4-chlorophenyl)-2,2,2-trifluoroethoxy)-2-aminopyrimidin-4-yl)-2,8-diazaspiro[4.5]decane-3-carboxylic acid] | 50 to 300 nM | –
13 | Nc1nc(O[C@H](c2ccc(Cl)cc2-c2cccc(C(=O)N3CCNCC3)c2)C(F)(F)F)cc(N2CCC3(CC2)CN[C@H](C(=O)O)C3)n1 [Example 34cq, (S)-8-(2-amino-6-((R)-1-(5-chloro-3′-(piperazine-1-carbonyl)-[1,1′-biphenyl]-2-yl)-2,2,2-trifluoroethoxy)pyrimidin-4-yl)-2,8-diazaspiro[4.5]decane-3-carboxylic acid] | < 50 nM | –
14 | Nc1nc(O[C@H](c2ccc(Cl)cc2-c2cccc(C(=O)N3CCN(C4CC4)CC3)c2)C(F)(F)F)cc(N2CCC3(CC2)CN[C@H](C(=O)O)C3)n1 [Example 34cr, (S)-8-(2-amino-6-((R)-1-(5-chloro-3′-(4-cyclopropylpiperazine-1-carbonyl)-[1,1′-biphenyl]-2-yl)-2,2,2-trifluoroethoxy)pyrimidin-4-yl)-2,8-diazaspiro[4.5]decane-3-carboxylic acid] | 50 to 300 nM | –
15 | Nc1nc(O[C@H](c2ccc(Cl)cc2-c2ccccn2)C(F)(F)F)cc(N2CCC3(CC2)CN[C@H](C(=O)O)C3)n1 [Example 34cs, (S)-8-(2-amino-6-((R)-1-(4-chloro-2-(pyridin-2-yl)phenyl)-2,2,2-trifluoroethoxy)pyrimidin-4-yl)-2,8-diazaspiro[4.5]decane-3-carboxylic acid] | 50 to 300 nM | –
16 | Nc1nc(O[C@H](c2ccc(Cl)cc2-c2ncccn2)C(F)(F)F)cc(N2CCC3(CC2)CN[C@H](C(=O)O)C3)n1 [Example 34ct, (S)-8-(2-amino-6-((R)-1-(4-chloro-2-(pyrimidin-2-yl)phenyl)-2,2,2-trifluoroethoxy)pyrimidin-4-yl)-2,8-diazaspiro[4.5]decane-3-carboxylic acid] | < 50 nM | –
17 | Nc1nc(O[C@H](c2ccc(Cl)cc2-c2cnccn2)C(F)(F)F)cc(N2CCC3(CC2)CN[C@H](C(=O)O)C3)n1 [Example 34cu, (S)-8-(2-amino-6-((R)-1-(4-chloro-2-(pyrazin-2-yl)phenyl)-2,2,2-trifluoroethoxy)pyrimidin-4-yl)-2,8-diazaspiro[4.5]decane-3-carboxylic acid] | < 50 nM | –
18 | COCCOc1cccc(-c2cc(Cl)ccc2[C@@H](Oc2cc(N3CCC4(CC3)CN[C@H](C(=O)O)C4)nc(N)n2)C(F)(F)F)c1 [Example 34cv, (S)-8-(2-amino-6-((R)-1-(5-chloro-3′-(2-methoxyethoxy)-[1,1′-biphenyl]-2-yl)-2,2,2-trifluoroethoxy)pyrimidin-4-yl)-2,8-diazaspiro[4.5]decane-3-carboxylic acid] | < 50 nM | –
19 | Nc1nc(O[C@H](c2ccc(Cl)cc2-c2ccccc2N)C(F)(F)F)cc(N2CCC3(CC2)CNC(C(=O)O)C3)n1 (stereo partly drawn) [Example 34d, 8-(2-amino-6-((R)-1-(2′-amino-5-chloro-[1,1′-biphenyl]-2-yl)-2,2,2-trifluoroethoxy)pyrimidin-4-yl)-2,8-diazaspiro[4.5]decane-3-carboxylic acid] | 50 to 300 nM | –
20 | Nc1nc(O[C@H](c2ccc(Cl)cc2-c2cccc([N+](=O)[O-])c2)C(F)(F)F)cc(N2CCC3(CC2)CNC(C(=O)O)C3)n1 (stereo partly drawn) [Example 34e, 8-(2-amino-6-((R)-1-(5-chloro-3′-nitro-[1,1′-biphenyl]-2-yl)-2,2,2-trifluoroethoxy)pyrimidin-4-yl)-2,8-diazaspiro[4.5]decane-3-carboxylic acid] | 50 to 300 nM | –
21 | Nc1cccc(-c2cc(Cl)ccc2[C@@H](Oc2cc(N3CCC4(CC3)CNC(C(=O)O)C4)nc(N)n2)C(F)(F)F)c1 (stereo partly drawn) [Example 34f, 8-(2-amino-6-((R)-1-(3′-amino-5-chloro-[1,1′-biphenyl]-2-yl)-2,2,2-trifluoroethoxy)pyrimidin-4-yl)-2,8-diazaspiro[4.5]decane-3-carboxylic acid] | 50 to 300 nM | –
22 | Nc1nc(O[C@H](c2ccc(Cl)cc2-c2ccc([N+](=O)[O-])cc2)C(F)(F)F)cc(N2CCC3(CC2)CNC(C(=O)O)C3)n1 (stereo partly drawn) [Example 34g, 8-(2-amino-6-((R)-1-(5-chloro-4′-nitro-[1,1′-biphenyl]-2-yl)-2,2,2-trifluoroethoxy)pyrimidin-4-yl)-2,8-diazaspiro[4.5]decane-3-carboxylic acid] | 50 to 300 nM | –
